Measured values taken from PubChem BioAssay AID330 (DTP/NCI, 2004).
Values joined by “and” are separate entries in the source; they are usually repeats but may differ in a detail not shown here. Equal values may be shown once. Toxic doses and inconclusive results are not listed. The calls were made as follows: active = survival T/C of 150% or more; inactive = T/C below 125% in these data.

System: P388 leukemia ip, CD2F1 mice, survival T/C
Experiment: NCI In Vivo Anticancer Drug Screen. Data for tumor model P388 Leukemia (intraperitoneal) in CD2F1 (CDF1) mice
Conditions: endpoint: median survival time, higher = longer survival
Method in brief: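 Mice carrying the transplanted tumor received test compound or vehicle. Survival was recorded in each group, and the value is the treated-group measurement divided by that of the vehicle-treated control group.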

[1] = dose: 12.5 mg/kg/injection, schedule: Q01DX009 (ip), vehicle: water
[2] = dose: 25.0 mg/kg/injection, schedule: Q01DX009 (ip), vehicle: water
[3] = dose: 25.0 mg/kg/injection, schedule: Q01DX009 (ip), vehicle: saline with Tween-80
[4] = dose: 50.0 mg/kg/injection, schedule: Q01DX009 (ip), vehicle: saline with Tween-80
[5] = dose: 100.0 mg/kg/injection, schedule: Q01DX009 (ip), vehicle: saline with Tween-80
[6] = dose: 200.0 mg/kg/injection, schedule: Q01DX009 (ip), vehicle: saline with Tween-80
[7] = dose: 60.0 mg/kg/injection, schedule: Q01DX005 (ip), vehicle: Klucel (hydroxypropylcellulose) (HPC)
[8] = dose: 120.0 mg/kg/injection, schedule: Q01DX005 (ip), vehicle: Klucel (hydroxypropylcellulose) (HPC)
[9] = dose: 240.0 mg/kg/injection, schedule: Q01DX005 (ip), vehicle: Klucel (hydroxypropylcellulose) (HPC)
[10] = dose: 50.0 mg/kg/injection, schedule: Q01DX009 (ip), vehicle: water
[11] = dose: 100.0 mg/kg/injection, schedule: Q01DX009 (ip), vehicle: water
[12] = dose: 200.0 mg/kg/injection, schedule: Q01DX009 (ip), vehicle: water
[13] = dose: 50.0 mg/kg/injection, schedule: Q01DX005 (ip), vehicle: saline with Tween-80
[14] = dose: 100.0 mg/kg/injection, schedule: Q01DX005 (ip), vehicle: saline with Tween-80
[15] = dose: 200.0 mg/kg/injection, schedule: Q01DX005 (ip), vehicle: saline with Tween-80

Measured: T/C

O=C(Nc1cccc(C(F)(F)F)c1)Oc1ccc(Cl)cc1C(=O)c1ccccc1
inactive: dose: 50.0 mg/kg/injection, schedule: Q01DX009 (ip), vehicle: saline 97 % of control | dose: 100.0 mg/kg/injection, schedule: Q01DX009 (ip), vehicle: saline 92 % of control | dose: 200.0 mg/kg/injection, schedule: Q01DX009 (ip), vehicle: saline 96 % of control

COc1c2c(c(OC)c3c1C(=O)c1ccccc1C3=O)CC=CC2
inactive: dose: 1.56 mg/kg/injection, schedule: Q01DX009 (ip), vehicle: water 101 % of control | dose: 3.13 mg/kg/injection, schedule: Q01DX009 (ip), vehicle: water 104 % of control | dose: 6.25 mg/kg/injection, schedule: Q01DX009 (ip), vehicle: water 103 % of control | [1] 103 % of control | [2] 100 % of control

O=C1/C(=C/c2ccc(O)c(O)c2)Cc2ccccc21
inactive: [3] 102 % of control | [4] 103 % of control | [5] 105 % of control | [6] 103 % of control

CCOC(=O)C1=C(C)NC(SC)=NC1c1ccccc1 (stereo not given)
inactive: [7] 99 % of control | [8] 97 % of control | [9] 99 % of control

COc1cccc(Cc2ccncc2)c1OC
inactive: [1] 101 % of control | [2] 100 % of control | [10] 100 % of control | [11] 102 % of control | [12] 103 % of control

CC(C)(C)SC(=O)C1CCCCC1
inactive: [4] 103 % of control | [5] 104 % of control

C/C=C(\C#N)SCC
inactive: [4] 103 % of control | [5] 114 % of control | [6] 109 % of control

CCOC(=O)C[n+]1cc2ccccc2cc1C
inactive: [13] 94 % of control | [14] 108 % of control

O=C(N/N=C/c1cc(Cl)ccc1O)C(=O)N/N=C/c1cc(Cl)ccc1O
inactive: [10] 92 % of control | [11] 92 % of control | [12] 100 % of control

CCOC(=O)C1=C(C(=O)C(C)(C)C)C(c2ccc([N+](=O)[O-])cc2)C(C(=O)C(C)(C)C)=C(C(=O)OCC)N1
inactive: [7] 103 % of control | [8] 94 % of control | [9] 103 % of control

O=C(O)c1ccccc1Nc1c(C(=O)O)cnc2cc3c(cc12)OCO3
inactive: [7] 101 % of control | [8] 99 % of control | [9] 88 % of control

CCN(CC)CCCC(C)Nc1cc(C)nc2cc(N(C)C)ccc12 (stereo not given)
inactive: dose: 6.25 mg/kg/injection, schedule: Q01DX009 (ip), vehicle: Klucel (hydroxypropylcellulose) (HPC) 99 % of control | dose: 12.5 mg/kg/injection, schedule: Q01DX009 (ip), vehicle: Klucel (hydroxypropylcellulose) (HPC) 101 % of control | dose: 25.0 mg/kg/injection, schedule: Q01DX009 (ip), vehicle: Klucel (hydroxypropylcellulose) (HPC) 109 % of control

CC(=O)OC1OC(CO)C(OCc2ccccc2)C(OCc2ccccc2)C1OC(C)=O (stereo not given)
inactive: dose: 4.0 mg/kg/injection, schedule: Q01DX009 (ip), vehicle: other 116 % of control | dose: 8.0 mg/kg/injection, schedule: Q01DX009 (ip), vehicle: other 104 % of control | dose: 16.0 mg/kg/injection, schedule: Q01DX009 (ip), vehicle: other 100 % of control | dose: 32.0 mg/kg/injection, schedule: Q01DX009 (ip), vehicle: other 92 % of control | dose: 50.0 mg/kg/injection, schedule: Q01DX009 (ip), vehicle: other 99 % of control | dose: 64.0 mg/kg/injection, schedule: Q01DX009 (ip), vehicle: other 98 % of control | dose: 100.0 mg/kg/injection, schedule: Q01DX009 (ip), vehicle: other 99 % of control | dose: 200.0 mg/kg/injection, schedule: Q01DX009 (ip), vehicle: other 99 % of control | dose: 400.0 mg/kg/injection, schedule: Q01DX009 (ip), vehicle: other 99 % of control

CCOC(=O)C(=O)/C=C/[C@H]1[C@H](C)CC=C[C@H]1NC(=O)OCc1ccccc1
inactive: dose: 60.0 mg/kg/injection, schedule: Q01DX005 (ip), vehicle: saline with Tween-80 103 % of control | dose: 120.0 mg/kg/injection, schedule: Q01DX005 (ip), vehicle: saline with Tween-80 99 % of control | dose: 240.0 mg/kg/injection, schedule: Q01DX005 (ip), vehicle: saline with Tween-80 97 % of control

Cc1ccc(C)c(C(=O)CCN(C)C)c1
inactive: dose: 15.0 mg/kg/injection, schedule: Q01DX005 (ip), vehicle: saline 106 % of control | dose: 30.0 mg/kg/injection, schedule: Q01DX005 (ip), vehicle: saline 94 % of control | dose: 60.0 mg/kg/injection, schedule: Q01DX005 (ip), vehicle: saline 99 % of control and 101 % of control

Cn1c(=O)c2[nH]c(C3CCCC3)nc2n(C)c1=O
inactive: dose: 3.13 mg/kg/injection, schedule: Q01DX009 (ip), vehicle: saline with Tween-80 94 % of control | dose: 6.25 mg/kg/injection, schedule: Q01DX009 (ip), vehicle: saline with Tween-80 103 % of control | dose: 12.5 mg/kg/injection, schedule: Q01DX009 (ip), vehicle: saline with Tween-80 103 % of control | [3] 92 % of control

NCCNc1ncnc2ccc(Cl)cc12
inactive: [13] 97 % of control | [14] 93 % of control | [15] 92 % of control

Cc1ccc(N=Cc2cccs2)c(Br)c1
inactive: dose: 50.0 mg/kg/injection, schedule: Q01DX009 (ip), vehicle: Klucel (hydroxypropylcellulose) (HPC) 100 % of control | dose: 100.0 mg/kg/injection, schedule: Q01DX009 (ip), vehicle: Klucel (hydroxypropylcellulose) (HPC) 118 % of control | dose: 200.0 mg/kg/injection, schedule: Q01DX009 (ip), vehicle: Klucel (hydroxypropylcellulose) (HPC) 100 % of control

COc1cc2c(c(OC)c1OC)-c1ccc(=O)c(OC)cc1[C@@H](NC(=O)C(F)(F)F)CC2
inactive: dose: 2.5 mg/kg/injection, schedule: Q01DX009 (ip), vehicle: Klucel (hydroxypropylcellulose) (HPC) 105 % of control | dose: 5.0 mg/kg/injection, schedule: Q01DX009 (ip), vehicle: Klucel (hydroxypropylcellulose) (HPC) 97 % of control | dose: 10.0 mg/kg/injection, schedule: Q01DX009 (ip), vehicle: Klucel (hydroxypropylcellulose) (HPC) 96 % of control | dose: 20.0 mg/kg/injection, schedule: Q01DX009 (ip), vehicle: Klucel (hydroxypropylcellulose) (HPC) 105 % of control | dose: 40.0 mg/kg/injection, schedule: Q01DX009 (ip), vehicle: Klucel (hydroxypropylcellulose) (HPC) 102 % of control

c1ccc2c(c1)nc1snc(-n3ccnc3)n12
inactive: dose: 50.0 mg/kg/injection, schedule: Q04DX003 (ip), vehicle: saline with Tween-80 103 % of control | dose: 100.0 mg/kg/injection, schedule: Q04DX003 (ip), vehicle: saline with Tween-80 111 % of control | dose: 200.0 mg/kg/injection, schedule: Q04DX003 (ip), vehicle: saline with Tween-80 90 % of control

C/C(=N\N=C(/[Se])N1CCC(C)CC1)c1ccccn1
inactive: [13] 107 % of control | [14] 100 % of control | [15] 100 % of control

C=C(Cn1cc(F)c(=O)n(CC(=C)C(=O)OCC)c1=O)C(=O)OCC
inactive: dose: 11.25 mg/kg/injection, schedule: Q04DX002 (ip), vehicle: distilled water + Tween-80 100 % of control | dose: 22.5 mg/kg/injection, schedule: Q04DX002 (ip), vehicle: distilled water + Tween-80 93 % of control | dose: 45.0 mg/kg/injection, schedule: Q04DX002 (ip), vehicle: distilled water + Tween-80 95 % of control | dose: 90.0 mg/kg/injection, schedule: Q04DX002 (ip), vehicle: distilled water + Tween-80 90 % of control | dose: 180.0 mg/kg/injection, schedule: Q04DX002 (ip), vehicle: distilled water + Tween-80 86 % of control
